For data set [1], the system named is HIV RF (HIV-1 RNA) in MT-2 cells. As to the kind of experiment: HIV-1 RNA microtiter plate compound evaluation assay in HIV-1 infected MT-2 cells (gag capture/reporter probes). The class given is cell-based, HIV-1 (strain RF). The procedure:
Compounds to be evaluated for antiviral activity were dissolved in DMSO and diluted at least 1:50 in culture medium, to 2× the highest concentration to be tested. Further, three-fold serial dilutions of the compound in culture medium were performed directly in U bottom microtiter plates (Nunc). After compound dilution, MT-2 cells, which had been sub-cultured one day prior to infection, were added to a final concentration of 5×10^5 cells/ml (1×10^5 cells/well). Cells were incubated with compounds in a volume of 150 μl for 30 minutes at 37° C. in a CO2 incubator. For evaluation of antiviral potency, appropriate dilutions of HIV RF virus stock (50 μl) were added to culture wells containing the cells and the dilutions of the compounds to be tested. Eight wells per plate were left uninfected with 50 μl of medium added instead of virus, while eight wells were infected in the absence of any antiviral compound. For evaluation of compound toxicity, parallel plates were cultured without virus infection. After three days of culture at 37° C. in a humidified chamber inside a CO2 incubator, all but 25 μl of medium/well was removed from the HIV infected plates. 37 μl of 5M GED containing the biotinylated capture oligo was added to the remaining medium and settled cells in each well to a final concentration of 3M GED, 50 nM biotinylated capture oligo. Hybridization of the biotinylated capture oligo to HIV-1 RNA in the cell lysate was carried out in the same microplate well by sealing the plate and incubating for 16-20 hours in a 37° C. incubator. 124 μl of distilled water was added to each well to dilute the hybridization reaction three-fold, and 150 μl aliquots of this diluted mixture was transferred to streptavidin coated microtiter plate wells. The biotin oligo-RNA complex solution was incubated with the immobilized streptavidin for two hours at room temperature, after which the plates were washed six times with DuPont ELISA plate wash buffer (phosphate buffered saline (PBS)/0.05% Tween 20) with a Denley plate washer. A second hybridization was carried out by adding 120 μl of hybridization cocktail containing 4× standard saline citrate (0.15M NaCl, 0.015 sodium citrate) (SSC), 0.66% Triton X-100 and 6.66% deionized formamide, 1 mg/ml bovine serum albumin (BSA) and 5 nM `gag` AP reporter oligo to each well. After hybridization for one hour at 37° C., the plate was again washed six times in PBS/0.05% Tween 20. Alkaline phosphatase activity was detected by addition of 100 μl of substrate detection buffer, consisting of: 0.2 mM 4-methylumbelliferyl phosphate (MUBP, JBL Scientific) in 2.5M diethanolamine pH 8.9 (JBL), 10 mM MgCl2, 5 mM Zinc acetate dihydrate, and 5 mM n-hydroxyethyl-ethylene-diamine-triaceticacid. The plates were incubated at 37° C. and the fluorescence produced measured in a microplate fluorometer (Dynateck) exciting at 365 nm and emitting at 450 nm. A standard curve, prepared by adding known amounts of pDAB 72 in vitro RNA transcript to wells containing lysed, uninfected cells, was run on each microtiter plate.
In order to standardize the virus innoculum used in the evaluation of compounds for anti-vital efficacy, a dose response to ddC was determined at several different dilutions of each virus stock to be used. A dilution of each stock of HIV RF virus stock which gaven an IC90 for ddC of 0.2 ug/ml was selected and used in subsequent compound evaluation assays.
The microtiter plate compound evaluation assay described in Example 9 above was employed to evaluate the efficacy of cyclohexamide, di-deoxycytidine (ddC) and XJ104 (N,N'-bis[tert-butoxycarbonyl-valyl]-1,6-diphenyl-2S,5S-diamino-3R,4R-dihydroxy(triphenylphosphine adduct)-hexane) as described in WO91/18866, the disclosure of which is hereby incorporated by reference, utilizing the HIV-1 `gag` capture and reporter probes described in Example 2.
In the figures below the IC90 and TC50 are indicated. […]

Data set [2] is described as follows: MTT dye reduction cytotoxicity assay on parallel uninfected MT-2 cultures. The class given is cell-based, human. Particulars: human. As for the experimental part:
(§1) Compounds to be evaluated for antiviral activity were dissolved in DMSO and diluted at least 1:50 in culture medium, to 2× the highest concentration to be tested. Further, three-fold serial dilutions of the compound in culture medium were performed directly in U bottom microtiter plates (Nunc). After compound dilution, MT-2 cells, which had been sub-cultured one day prior to infection, were added to a final concentration of 5×10^5 cells/ml (1×10^5 cells/well). Cells were incubated with compounds in a volume of 150 μl for 30 minutes at 37° C. in a CO2 incubator. For evaluation of antiviral potency, appropriate dilutions of HIV RF virus stock (50 μl) were added to culture wells containing the cells and the dilutions of the compounds to be tested. Eight wells per plate were left uninfected with 50 μl of medium added instead of virus, while eight wells were infected in the absence of any antiviral compound. For evaluation of compound toxicity, parallel plates were cultured without virus infection. After three days of culture at 37° C. in a humidified chamber inside a CO2 incubator, all but 25 μl of medium/well was removed from the HIV infected plates. […] Alkaline phosphatase activity was detected by addition of 100 μl of substrate detection buffer, consisting of: 0.2 mM 4-methylumbelliferyl phosphate (MUBP, JBL Scientific) in 2.5M diethanolamine pH 8.9 (JBL), 10 mM MgCl2, 5 mM Zinc acetate dihydrate, and 5 mM n-hydroxyethyl-ethylene-diamine-triaceticacid. The plates were incubated at 37° C. and the fluorescence produced measured in a microplate fluorometer (Dynateck) exciting at 365 nm and emitting at 450 nm. […]
(§2) In order to assess the potential cytotoxicity of compounds being evaluated for antiviral efficacy, an MTT dye reduction assay was performed at the end of the three day culture period on the parallel, uninfected, but compound treated cultures. […] Solubilized MTT dye product was quantitated using an ELISA microplate reader at 570 nm. […]
Background: Formazan colour is commonly taken as a measure of viable cells.

The subject of data set [3] is MT-2 cells. Described as above. The class given is cell-based, human. Particulars: uninfected MT-2 cells, three days culture; 50% reduction of absorbance at 570 nm in MTT assay; 4320 min. The procedure: as §1, §2
The mark [4] stands for this setting: TC50 to IC90 ratio of greater than 3 regarded as antiviral efficacy.

In brackets after ≈: the same amount, converted by molar mass. Where two headings read alike, the source gives them in different places. Some results are limits rather than exact numbers.

Consider three molecules from patent US5726012A, “Rapid, high capacity nucleic acid based assay” (E. I. du Pont de Nemours and Company, priority 1994, dated 1998).

As usually defined, the IC90 is the concentration needed for an effect of 90%.

As for `C[C@@H]1C[C@@H]([C@H](O)CC2CC(=O)NC(=O)C2)C(=O)[C@@H](C)C1` [cyclohexamide], in data set [1] (Human immunodeficiency virus 1, MT2, 72 h, read-out: IC90 in the RNA assay), the IC90 was 0.45 µg/mL (≈ 1.6 µM). Also, the “specific anti-viral efficacy (IC90 in RNA assay compared with TC50 in MTT assay)” value in data set [1] (setting [4]) is listed as “no specific anti-viral efficacy is apparent”. In data set [2] (uninfected MT-2 cells, three days culture, 50% reduction of absorbance at 570 nm in MTT assay, read-out: TC50), the CC50 at 72 h worked out at 0.45 µg/mL (≈ 1.6 µM).

With “N,N'-bis[tert-butoxycarbonyl-valyl]-1,6-diphenyl-2S,5S-diamino-3R,4R-dihydroxy(triphenylphosphine adduct)-hexane [XJ104]”, the “IC90 in the RNA assay” value in data set [1] (HIV RF infected MT-2 cells, three days culture, 90% reduction of HIV-1 RNA, FIGS. 4-6) turned out to be 30 µg/mL. The “specific anti-viral efficacy (IC90 in RNA assay compared with TC50 in MTT assay)” value in data set [1] (setting [4]) is listed as “no specific anti-viral efficacy is apparent”. Also, in data set [3], the TC50 was 2 µg/mL.

`Nc1ccn([C@H]2CC[C@@H](CO)O2)c(=O)n1` [ddC, di-deoxycytidine]: the “specific anti-viral efficacy (IC90 in RNA assay compared with TC50 in MTT assay)” value in data set [1] is “displays anti-viral efficacy”. Moreover, the IC90 was 0.13 µg/mL (≈ 0.615 µM) in data set [1] (Human immunodeficiency virus 1, MT2, 72 h, HIV RF infected MT-2 cells, three days culture, 90% reduction of HIV-1 RNA, FIGS. 4-6, read-out: IC90 in the RNA assay) and 0.2 µg/mL (≈ 0.947 µM) in data set [1] (Human immunodeficiency virus 1, MT2, selected dilution of each HIV RF virus stock, read-out: IC90 for ddC used to standardize virus innoculum). The molecule also had a CC50 at 72 h in data set [2] (mt-2 cells) greater than 50 µg/mL.
